# Test results reported in ChEMBL document CHEMBL1139966, “ERbeta ligands. Part 6: 6H-Chromeno[4,3-b]quinolines as a new series of estrogen receptor beta-selective ligands” (Bioorg Med Chem Lett, 2007).
# Species: Homo sapiens
# Test: Selectivity for human ERalpha over ERbeta
row,Compound,Ratio IC50
1,Oc1ccc2c(c1)OCc1c-2nc2ccc(O)cc2c1-c1ccc(Cl)cc1,15
2,N#Cc1ccc(-c2c3c(nc4ccc(O)cc24)-c2ccc(O)cc2OC3)cc1,16
3,Oc1ccc2c(c1)OCc1c-2nc2ccc(O)cc2c1-c1ccc(C(F)(F)F)cc1,16
4,Oc1ccc2c(c1)OCc1c-2nc2ccc(O)cc2c1-c1cccc(Cl)c1,4
5,COc1cccc(-c2c3c(nc4ccc(O)cc24)-c2ccc(O)cc2OC3)c1,10
6,CCc1cc(-c2ccc(O)cc2)nc2ccc(O)cc12,12
7,N#Cc1cccc(-c2c3c(nc4ccc(O)cc24)-c2ccc(O)cc2OC3)c1,8
8,COc1ccc(-c2c3c(nc4ccc(O)cc24)-c2ccc(O)cc2OC3)cc1,6
9,Oc1ccc(-c2cc(Cl)c3cc(O)ccc3n2)cc1,46
10,C#Cc1cc(-c2ccc(O)cc2)nc2ccc(O)cc12,20

# More lines, now with the values ahead:
row,Ratio IC50,Compound
1,24,C=Cc1c2c(nc3ccc(O)cc13)-c1ccc(O)cc1OC2
2,14,CCc1c2c(nc3ccc(O)cc13)-c1ccc(O)cc1OC2
3,12,C#Cc1c2c(nc3ccc(O)cc13)-c1ccc(O)cc1OC2
4,27,Oc1ccc2c(c1)OCc1c-2nc2ccc(O)cc2c1Cl
5,16,Oc1ccc2c(c1)OCc1c-2nc2ccc(O)cc2c1Br
6,16,N#Cc1c2c(nc3ccc(O)cc13)-c1ccc(O)cc1OC2
